Results reported in patent US20150126368A1, “METHOD OF PROVIDING PLANT WITH STRESS RESISTANCE” (Nippon Soda Co., Ltd., priority 2012, published 2015).

Columns and labels:
Assay type in all cases: in vivo
Soybean (breed: Enrei) [1] = experiment: Evaluation test for relief effects of salt injury on soybean; conditions: 0.1% aqueous sodium chloride from 2 days, raw weight 11 days after spray
Protocol: Soybean (breed: Enrei, 2 reprications) hydroponically grown up to the two leaf stage in a greenhouse was prepared.
A water dispersible granule of 30% ascorbic acid palmitate and pyraclostrobin adjusted to 40% with N,N-dimethylformamide were diluted with tap water to a predetermined concentration, and the diluted solution was sprayed over the whole nursery plants in a sufficient amount. After air dried, they were cultivated with normal irrigation in a greenhouse. Then, the irrigation conditions were changed to 0.1% aqueous sodium chloride solution in 2 cm depth from 2 days after the spraying, and cultivated up to 11 days after the spray treatment. Then the raw weights of an aerial part and a root part were each measured. From this, injury relief percentages were computed by the following formula.
Salt injury relief percentage=((raw weight of each treatment region)−(raw weight of untreated region))/(raw weight of untreated region)×100

[2] = test system: Eggplant (breed: Senryo 2 gou); experiment: Evaluation test for relief effects of low temperature injury on eggplant; conditions: 13° C. daylight/8° C. dark, 15 days after spray
Protocol: Eggplant (breed: Senryo 2 gou, 3 reprications) grown up to the 4 to 6 leaf stage in a greenhouse was prepared.
A water dispersible granule of 30% ascorbyl palmitate and pyraclostrobin dissolved to 40% with N,N-dimethylformamide were diluted with tap water to a concentration described in Table 6, and the diluted solution was sprayed over the whole nursery plants in a sufficient amount. After air dried, they were allowed to grow for 1 day under conditions of 16 hours under a daylight condition at 18° C. and 8 hours under a dark condition at 13° C., and then allowed to grow under conditions of 16 hours under a daylight condition at 13° C. and 8 hours under a dark condition at 8° C. A degree of disorder was investigated at the elapsed time of 15 days after the spray treatment.
Disorders were evaluated by 4 levels of disorder indices of 0 (no color change), 1 (discolored up to ¼ of the whole), 2 (discolored up to ½ of the whole), 3 (discolored at ½ or more of the whole) with reference to the area of a discolored portion in an expanded leaf after treatment.
Injury relief percentage=((disorder index of untreated region)−(disorder index of each treated region))/(disorder index of untreated region)×100

Soybean (breed: Enrei) [3] = experiment: Evaluation test for relief effects of acidity problem on soybean; conditions: hydroponic medium pH 4 from 2 days, disorder index 11 days after spray
Protocol: Soybean (breed: Enrei, 2 reprications) hydroponically grown up to the two leaf stage in a 100 ml flask was prepared.
(§1) A water dispersible granule of 30% ascorbyl palmitate and pyraclostrobin dissolved to 40% with N,N-dimethylformamide were diluted with tap water to a predetermined concentration, and the diluted solution was sprayed over the whole nursery plants in a sufficient amount. The water culture medium was adjusted to pH 4 with 1 N hydrochloric acid at the elapsed time of 2 days after the spray treatment, and the above soybean was continuously allowed to grow hydroponically. Disorder in the soybean was investigated at the elapsed time of 11 days after the spray treatment.
For disorder, a degree of necrosis was evaluated by 11 levels of disorder indices from 0 (no necrosis) to 10 (withering to death). From this, problem relief percentages were computed by the following formula.
Acidity problem relief percentage=((disorder index of untreated region)−(disorder index of each treated region))/(disorder index of untreated region)×100

Tomato (breed: Reiyo) = experiment: Evaluation test for relief effects of low temperature injury on tomato; conditions: one night outside at average 0.5° C.
Protocol: Tomato (breed: Reiyo, 4 reprications) grown up to the 3.5 leaf stage in a greenhouse was prepared.
A water dispersible granule of 30% ascorbyl palmitate and pyraclostrobin dissolved to 40% with N,N-dimethylformamide were diluted with tap water to a concentration described in Table 7, and the diluted solution was sprayed over the whole nursery plants in a sufficient amount. After air dried, they were transferred to the outside of the greenhouse at an average temperature of 0.5° C. during night to investigate a degree of low temperature injury on the next morning.
Disorders were evaluated by 5 levels of disorder indices of 0 (no disorder) to 4 (complete withering). From this, disorder relief percentages were computed by the following formula.
Low temperature injury relief percentage=(disorder index of untreated region)−(disorder index of each treatment region)/(disorder index of untreated region)×100

[4] = test system: Cucumber (breed: Sagamihanjirohushinari); experiment: Evaluation test for relief effects of acidity problem on cucumber; conditions: hydroponic medium pH 4 from 2 days, leaf stage 17 days after spray
Protocol: Cucumber (breed: Sagamihanjirohushinari, 2 reprications) hydroponically grown up to the two leaf stage in a 100 ml flask was prepared.
as §1, with “ascorbic acid” for “ascorbyl”, “adjusted” for “dissolved”, “cucumber” for “soybean”, “Leaf stage of” for “Disorder in”, “17” for “at the elapsed time of 11”, “treatment. From this, disorder relief percentages were computed by the following formula.” for “treatment.”
Acidity problem relief percentage=((leaf stage of each treatment region)−(leaf stage of untreated region))/(leaf stage of untreated region)×100

[5] = test system: Cucumber nursery plants (breed: Sagamihanjiro); experiment: Evaluation test for relief effects of low temperature injury on cucumber; conditions: spray, 2 days 25° C., then 9 days 10° C. daylight/7° C. dark, vs solvent only
Protocol: N,N-dimethylformamide based solutions were prepared according to the formulations shown in Tables 5 to give chemical solutions for the tests.
Cucumber nursery plants (breed: Sagamihanjiro) grown up to the 1.5 leaf stage in a greenhouse was prepared.
The above chemical solution was sprayed to the stem and leaf parts of the above cucumber nursery plants in a sufficient amount, and then air dried. They were allowed to grow at 25° C. for 2 days under conditions of 16 hours under a daylight condition and 8 hours under a dark condition. Then, they were allowed to grow for 9 days under conditions of 16 hours under a daylight condition at 10° C. and 8 hours under a dark condition at 7° C.
Disorders were evaluated by 11 levels of disorder indices from 0 (no disorders) to 10 (withering to death).
Low temperature injury relief percentages as compared with a region treated with solvent DMF only (Chemical solution 3) were computed by the following formula.
Low temperature injury relief percentage=((disorder index of region treated with solvent only)−(disorder index of each treated region))/(disorder index of region treated with solvent only)×100

Soybean (breed: Enrei) [6] = experiment: Evaluation test for relief effects of flood injury on soybean; conditions: flood from 2 days, raw weight 11 days after spray
Protocol: Soybean (breed: Enrei, 2 reprications) grown up to the two leaf stage in a greenhouse was prepared.
A water dispersible granule of 30% ascorbyl palmitate and pyraclostrobin adjusted to 40% with N,N-dimethylformamide were diluted with tap water to a predetermined concentration, and the diluted solution was sprayed in a sufficient amount. They were subjected to flood conditions up to immediately below the cotyledon from 2 days after the spray treatment, and the raw weights of an above ground part and a root part of soybean were each measured at the elapsed time of 11 days after the spray treatment. From this, injury relief percentages were computed by the following formula.
Flood injury relief percentage=((raw weight of each treatment region)−(raw weight of untreated region))/(raw weight of untreated region)×100

[7] = ascorbyl palmitate 1000 ppm spray

SMILES: COC(=O)N(OC)c1ccccc1COc1ccn(-c2ccc(Cl)cc2)n1 [Pyraclostrobin, reference compound]
- relief percents of salt injury in aerial part(%) (Soybean (breed: Enrei) [1]; Pyraclostrobin 50 ppm spray): 3.2%
- relief percents of salt injury in root(%) (Soybean (breed: Enrei) [1]; Pyraclostrobin 50 ppm spray): 2.5%
- relief percents of low-temperature injury(%) ([2]; Pyraclostrobin 50 ppm spray): 13.0%
- relief percents of acidity problem(%) (Soybean (breed: Enrei) [3]; Pyraclostrobin 50 ppm spray): 12.5%
- relief percents of low-temperature injury(%) (Tomato (breed: Reiyo); Pyraclostrobin 50 ppm spray): 25%
- relief percents of acidity problem(%) ([4]; Pyraclostrobin 50 ppm spray): 15.6%
- relief percents of low-temperature injury(%) ([5]; Pyraclostrobin 40 ppm in DMF): 19%
- relief percents of flood injury in aerial part(%) (Soybean (breed: Enrei) [6]; Pyraclostrobin 50 ppm spray): 0.0%
- relief percents of flood injury in root(%) (Soybean (breed: Enrei) [6]; Pyraclostrobin 50 ppm spray): 3.2%

SMILES: CCCCCCCCCCCCCCCC(=O)OC[C@H](O)[C@H]1OC(=O)C(O)=C1O [ascorbyl palmitate]
- relief percents of salt injury in aerial part(%) (Soybean (breed: Enrei) [1]; [7]): 20.4%
- relief percents of salt injury in root(%) (Soybean (breed: Enrei) [1]; [7]): 22.2%
- relief percents of low-temperature injury(%) [2, 7]: 13.0%
- relief percents of acidity problem(%) (Soybean (breed: Enrei) [3]; [7]): 43.8%
- relief percents of low-temperature injury(%) (Tomato (breed: Reiyo); ascorbyl palmitate 500 ppm spray): 100%
- relief percents of acidity problem(%) [4, 7]: 15.6%
- relief percents of low-temperature injury(%) ([5]; ascorbyl palmitate 800 ppm in DMF): 25%
- relief percents of flood injury in aerial part(%) (Soybean (breed: Enrei) [6]; [7]): 2.8%
- relief percents of flood injury in root(%) (Soybean (breed: Enrei) [6]; [7]): 20.4%
